{
  "source": "paper PMC7136958",
  "about": "“Targeting the pregnane X receptor using microbial metabolite mimicry” (EMBO Molecular Medicine, 2020)",
  "format_in_all_cases": "in vivo, mouse",
  "key": {"C57BL/6 mice": {"system": "C57BL/6 mice", "experiment": "PXR target gene expression in C57BL/6 mice after FKK6 gavage", "conditions": "for Cyp3a11 fold expression / mdr1 fold expression: Fig 4d", "experimental": "(§1) (Scheer et al, 2010) were administered 10% DMSO (n = 3) or FKK6 (n = 3) in 3 or 5 doses, with each dose interval of 12 h. Each gavage dose volume was 100 μl. 2–4 h after the dosing period, mice were sacrificed, and tissues were harvested for further analysis. The mouse studies were performed three independent times over an 18‐month period. All purchased mice were acclimatized in the Einstein vivarium for ~ 2 weeks before experiments started. […]. The room temperature was maintained at 25 ± 2°C with 55 ± 5% humidity. All studies were approved by the Institute of Animal Studies at the Albert Einstein College of Medicine, INC (IACUC # 20160706, 20160701 and preceding protocols), and specific animal protocols were also approved by additional protocols (IACUC# 20170406, 20170504) and Animal Care and Use Review Office (ACURO) of the US Army Medical Research and Materiel Command (PR160167, W81XWH‐17‐1‐0479). […]\n(§2) Mouse small, large intestine and liver samples were collected and total RNAs were […]\n(§3) isolated. […] Each tissue PCR was […]\n(§4) repeated in quadruplicate. The expression was normalized to internal control, GAPDH. ( b,d) The histograms show mean (95 %CI) values, c, mean (SD) and two way ANOVA followed with Tukey's post hoc test. The entire experiment was repeated n = 3 for reproducibility. The data shown is one representative experiment ."}, "Cyp3a11": {"system": "Cyp3a11", "experiment": "PXR target gene expression in C57BL/6 mice after FKK6 gavage", "conditions": "both sexes, C57BL/6J, mouse, 500 μM, 5 doses (60 h), individual mice", "experimental": "as §1, §2, §3, §4"}, "mdr1a": {"system": "mdr1a", "experiment": "PXR target gene expression in C57BL/6 mice after FKK6 gavage", "conditions": "both sexes, C57BL/6J, mouse, 500 μM, 5 doses (60 h), individual mice", "experimental": "as §1, §2, §3, §4"}, "hPXR mice": {"system": "hPXR mice", "experiment": "DSS-induced acute colitis in hPXR mice", "experimental": "For these studies, 7‐ to 8‐week‐old female (DeVoss & Diehl, 2014) hPXR (mice expressing the human PXR gene) and pxr ^−/− mice (C57BL/6 background) were bred and each genotype was separated into two treatment groups using a random allocation method via coin toss—(i) n = 3 control (0.8% DMSO in 100 μl drinking water) and (ii) n = 3 FKK6 (200 μM (0.4 mg/kg/day) in 0.8% DMSO in 100 μl drinking water) administered once per day via oral gavage, and via intrarectal gavage for a total of 10 consecutive days The dose was chosen based on the extrapolation of the total dose delivered over 10 days to mice (~ 4 mg/kg), which is equivalent to that delivered to mice for determining target gene expression over 3–5 doses (3–5 mg/kg). […] Fecal pellets were collected prior to the initiation of the treatment protocol. All mice were starved overnight (12 h) to allow for smooth intrarectal delivery; however, the mice were allowed to feed ad libitum during the day. After 10 days, the mice were sacrificed and organs/tissues/feces harvested for further study. Prior to necropsy, mice were administered FITC‐dextran, and mouse serum was collected for the FITC‐dextran assay as previously described (Vetizou et al, 2015). The experimenter was not blinded to treatment allocation; however, the pathologist (KS) evaluating histologic scores was blinded to treatment allocation. All studies were approved by the Institute of Animal Studies at the Albert Einstein College of Medicine, INC (IACUC # 20160706 and preceding protocols). Colitis scoring was performed as previously published, and post‐examination masking was conducted (Kim et al, 2012; Meyerholz & Beck, 2018).\nFor RT–qPCR of colon tissue for cytokine expression data, new experiments were conducted with 3% DSS and the identical FKK6 dose (n = 3 mice/group) and scheduled as above. RT–qPCR was performed using PowerUp™ SYBR® Green Master Mix (A25741, Thermo Fisher Scientific) and primers specific for IL‐10, TNF‐α, TNFR2, and […]. Each target gene was analyzed in quadruplicate. Normalizing controls included GAPDH (used to illustrate data) and TBP."}, "[1]": {"conditions": "500 μM, 5 doses (60 h), individual mice"}, "[2]": {"conditions": "FKK6 200 μM, day 10, individual mice"}},
  "note": "Several values for one entry are separate records, joined by “and”; a condition that tells them apart may be missing. Equal entries are not always repeated. Where two headings read alike, the source gives them in different places.",
  "data": [
    {"smiles": "C#CCC(O)(c1ccncc1)c1cc2ccccc2n1S(=O)(=O)c1ccccc1", "note": "(stereo not drawn) [FKK6]", "values": [
      {"measurement": "Cyp3a11 fold induction, Liver", "setting": "C57BL/6 mice; 500 μM FKK6 gavage every 12 h, 5 doses (60 h), individual mice", "result": "1.38 fold and 0.89 fold"},
      {"measurement": "Cyp3a11 fold induction, Large Intestine", "setting": "C57BL/6 mice; [1]", "result": "2.23 fold and 0.59 fold"},
      {"measurement": "Cyp3a11 fold induction, Small Intestine", "setting": "C57BL/6 mice; [1]", "result": "1.06 fold and 0.22 fold and 0.76 fold"},
      {"measurement": "mdr1a fold induction, Large Intestine", "setting": "C57BL/6 mice; [1]", "result": "1.77 fold and 1.33 fold"},
      {"measurement": "mdr1a fold induction, Liver", "setting": "C57BL/6 mice; [1]", "result": 1.83, "unit": "fold"},
      {"measurement": "mdr1a fold induction, Small Intestine", "setting": "C57BL/6 mice; [1]", "result": "2.65 fold and 1.8 fold and 0.95 fold"},
      {"measurement": "mdr1b fold induction, Large Intestine", "setting": "C57BL/6 mice; [1]", "result": "0.89 fold and 0.42 fold and 0.77 fold"},
      {"measurement": "mdr1b fold induction, Liver", "setting": "C57BL/6 mice; [1]", "result": "1.65 fold and 1.12 fold and 0.6 fold"},
      {"measurement": "mdr1b fold induction, Small Intestine", "setting": "C57BL/6 mice; [1]", "result": "2.4 fold and 1.54 fold and 0.43 fold"},
      {"measurement": "Cyp3a11 fold expression", "setting": "C57BL/6 mice; Large Intestine", "result": "1.73 fold and 2.49 fold and 1.98 fold"},
      {"measurement": "mdr1 fold expression", "setting": "C57BL/6 mice; Large Intestine", "result": "1.58 fold and 1.34 fold and 1.57 fold"},
      {"measurement": "Cyp3a11 fold expression", "setting": "C57BL/6 mice; Liver", "result": "1.21 fold and 1.31 fold and 1.6 fold"},
      {"measurement": "mdr1 fold expression", "setting": "C57BL/6 mice; Liver", "result": "0.95 fold and 0.87 fold and 0.81 fold"},
      {"measurement": "Cyp3a11 fold expression", "setting": "C57BL/6 mice; Small Intestine", "result": "1.28 fold and 1.07 fold and 0.75 fold"},
      {"measurement": "mdr1 fold expression", "setting": "C57BL/6 mice; Small Intestine", "result": "1.46 fold and 2.26 fold and 1.43 fold"},
      {"measurement": "PXR target gene (cyp3a11, mdr1a, mdr1b, mdr1) expression across organs", "setting": "C57BL/6 mice; ~500 μM, 36 or 60 h", "result": "No significant effect"},
      {"measurement": "fold induction at 60 h, 500 µM", "setting": "Cyp3a11; in vivo, read-out: Cyp3a11 fold induction, Large Intestine", "result": 2.55},
      {"measurement": "fold induction at 60 h", "setting": "Cyp3a11; liver, oral, 500 μM FKK6 gavage every 12 h", "result": 1.72},
      {"measurement": "fold induction at 60 h, 500 µM", "setting": "mdr1a; in vivo, read-out: mdr1a fold induction, Liver", "result": 1.81},
      {"measurement": "fold induction at 60 h, 500 µM", "setting": "mdr1a; large intestine, oral, read-out: mdr1a fold induction, Large Intestine", "result": 1.27},
      {"measurement": "fold induction at 60 h, 500 µM", "setting": "mdr1a; liver, oral, read-out: mdr1a fold induction, Liver", "result": 3.05},
      {"measurement": "colon tissue IL-10 mRNA", "setting": "hPXR mice; 3% DSS, FKK6 vs controls", "result": "significant increase"},
      {"measurement": "colon tissue TNF-α mRNA", "setting": "hPXR mice; 3% DSS, FKK6 vs controls", "result": "decrease"},
      {"measurement": "colon tissue TNFR2 mRNA", "setting": "hPXR mice; 3% DSS, FKK6 vs controls", "result": "decrease"},
      {"measurement": "colon tissue IL-17f mRNA", "setting": "hPXR mice; 3% DSS, FKK6 vs vehicle", "result": "significant reduction"},
      {"measurement": "fecal lipocalin 2", "setting": "hPXR mice; FKK6 200 μM", "result": "only a trend in the reduction"},
      {"measurement": "serum FITC-dextran", "setting": "hPXR mice; FKK6 200 μM", "result": "only a trend in the reduction"},
      {"measurement": "% weight loss from baseline (day 1 vs. day 10)", "setting": "hPXR mice; FKK6 200 μM oral gavage plus intrarectal, once daily 10 days, individual mice", "result": "significantly reduced weight loss and 20% and 16%"},
      {"measurement": "colon length", "setting": "hPXR mice; [2]", "result": "increased colon length and 5.2 cm and 5.6 cm and 5.1 cm"},
      {"measurement": "inflammation score", "setting": "hPXR mice; [2]", "result": "substantially decreased and 3 and 5"}
    ]}
  ]
}
